Tests used:
[1] = molecular target: T1, His-tagged recombinant human MER cytoplasmic domain (Homo sapiens, UniProt Q12866); assay: MER Enzyme Assay (LanthaScreen Eu Kinase Binding); conditions: averaged IC50; MER 5 nM; 60-minute incubation at 22° C.; TR-FRET
T1 construct: His-tagged recombinant human MER cytoplasmic domain
T1 sequence (Q12866 527-999 limits assumed): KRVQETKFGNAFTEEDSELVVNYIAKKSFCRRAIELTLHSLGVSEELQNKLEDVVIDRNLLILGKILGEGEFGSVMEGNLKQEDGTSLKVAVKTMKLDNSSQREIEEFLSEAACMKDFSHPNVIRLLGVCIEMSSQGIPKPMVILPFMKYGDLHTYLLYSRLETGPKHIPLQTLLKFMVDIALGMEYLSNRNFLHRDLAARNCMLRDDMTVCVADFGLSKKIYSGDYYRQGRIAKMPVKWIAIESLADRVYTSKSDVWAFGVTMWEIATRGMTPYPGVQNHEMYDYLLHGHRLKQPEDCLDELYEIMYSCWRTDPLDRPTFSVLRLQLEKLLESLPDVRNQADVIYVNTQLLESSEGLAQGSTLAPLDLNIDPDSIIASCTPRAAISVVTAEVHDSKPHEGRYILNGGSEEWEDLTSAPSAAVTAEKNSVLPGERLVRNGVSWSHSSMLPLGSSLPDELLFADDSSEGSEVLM
In short: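 TR-FRET binding: 5 nM His-MER cytoplasmic domain with 20 nM Tracer 236, 2 nM biotin-anti-His and 2 nM Eu-streptavidin in pH 7.4 HEPES, 10 mM MgCl2, 2% DMSO, with threefold compound dilutions, 60 min at 22 °C. Percent of control was fit to a 4-parameter logistic, and IC50 was taken at 50 POC.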

[2] = molecular target: T2, GST-tagged recombinant human TYRO3 kinase domain (Homo sapiens, UniProt Q06418); assay: TYRO3 Enzyme Assay (LanthaScreen Eu Kinase Binding); conditions: averaged IC50; TYRO3 5 nM; 60-minute incubation at 22° C.; TR-FRET
T2 construct: GST-tagged recombinant human TYRO3 kinase domain; purchased Carna PR7480A
T2 sequence (Q06418 518-790 limits assumed): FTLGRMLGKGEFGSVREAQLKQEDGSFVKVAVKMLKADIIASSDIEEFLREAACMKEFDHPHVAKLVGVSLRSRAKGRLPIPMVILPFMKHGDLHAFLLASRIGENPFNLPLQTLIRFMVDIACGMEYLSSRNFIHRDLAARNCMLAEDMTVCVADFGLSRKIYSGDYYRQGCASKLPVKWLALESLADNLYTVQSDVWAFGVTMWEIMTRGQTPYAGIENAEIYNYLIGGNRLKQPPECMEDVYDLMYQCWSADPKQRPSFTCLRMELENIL
In short: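 Competitive tracer-displacement TR-FRET: 5 nM kinase, 20 nM Alexa-Fluor Tracer 236 and 2 nM Eu-anti-GST with threefold-diluted compound in 25 mM HEPES pH 7.4, 10 mM MgCl2, 0.01% Triton X-100, 2% DMSO, 60 min at 22° C. Ratiometric percent of control fitted to a 4-parameter logistic; IC50 at 50 POC.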

[3] = molecular target: T3, MET (wt) GST-tagged recombinant human MET kinase domain (Homo sapiens, UniProt P08581); assay: c-Met Enzyme Assay, wild type (LanthaScreen Eu Kinase Binding); conditions: averaged IC50; MET (wt) 10 nM; 60-minute incubation at 22° C.; read-out: SigChem WT IC50
T3 construct: GST-tagged recombinant human MET kinase domain; purchased Signal Chem
T3 sequence (P08581 1078-1345 limits assumed): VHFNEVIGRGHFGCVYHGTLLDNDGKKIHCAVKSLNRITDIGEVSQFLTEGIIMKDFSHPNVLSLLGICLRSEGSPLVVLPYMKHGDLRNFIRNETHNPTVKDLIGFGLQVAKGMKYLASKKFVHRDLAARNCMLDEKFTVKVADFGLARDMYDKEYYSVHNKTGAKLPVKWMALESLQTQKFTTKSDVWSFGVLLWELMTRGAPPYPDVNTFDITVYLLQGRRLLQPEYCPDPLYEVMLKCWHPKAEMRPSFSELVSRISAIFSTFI
Description: (§1) The affinity of compound binding to wild type and mutant human MET kinases was measured using Invitrogen's LanthaScreen™ Eu Kinase Binding technology. Briefly, GST-tagged recombinant human MET kinase domain from Signal Chem (see Table 8 below for concentration in assay) was incubated with 50 nM Alexa-Fluor® Tracer 236 (Invitrogen Cat No. PR9078A) and 2 nM Europium-anti-GST (Invitrogen Cat. No. A15116) along with test compound in a buffer consisting of 25 mM HEPES, pH 7.4, 10 mM MgCl2, 0.01% Triton X-100, 1mM DTT, and 2% DMSO. Compounds were typically prepared in a three-fold serial dilution in DMSO and added to the assay to give the appropriate final concentration. After a 60-minute incubation at 22° C., the reaction was measured using a PerkinElmer EnVision multimode plate reader via TR-FRET dual wavelength detection, and the percent of control (POC) calculated using a ratiometric emission factor. […] The POC values were fit to a 4 parameter logistic curve and the IC50 value is point where the curve crosses 50 POC.

[4] = molecular target: T4, human MET kinase L1195V (Homo sapiens, UniProt P08581, L1195V); assay: c-Met Enzyme Assay, L1195V mutant; type: binding; conditions: averaged IC50; L1195V 10 nM; 60-minute incubation at 22° C.
T4 construct: GST-tagged recombinant human MET kinase domain; purchased Signal Chem
T4 sequence (P08581 1078-1345 L1195V limits assumed): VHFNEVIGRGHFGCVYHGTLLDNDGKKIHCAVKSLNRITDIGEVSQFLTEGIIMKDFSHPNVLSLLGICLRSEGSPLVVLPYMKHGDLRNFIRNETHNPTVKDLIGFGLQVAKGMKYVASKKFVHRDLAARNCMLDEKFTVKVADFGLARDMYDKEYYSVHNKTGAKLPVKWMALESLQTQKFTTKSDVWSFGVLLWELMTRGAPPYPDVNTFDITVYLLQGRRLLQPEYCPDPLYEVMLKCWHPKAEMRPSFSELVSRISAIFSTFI
Description: as §1

[5] = molecular target: T5, human MET kinase Y1230C (Homo sapiens, UniProt P08581, Y1230C); assay: c-Met Enzyme Assay, Y1230C mutant; type: binding; conditions: averaged IC50; Y1230C 2 nM; 60-minute incubation at 22° C.; read-out: Y1230 C IC50
T5 construct: GST-tagged recombinant human MET kinase domain; purchased Signal Chem
T5 sequence (P08581 1078-1345 Y1230C): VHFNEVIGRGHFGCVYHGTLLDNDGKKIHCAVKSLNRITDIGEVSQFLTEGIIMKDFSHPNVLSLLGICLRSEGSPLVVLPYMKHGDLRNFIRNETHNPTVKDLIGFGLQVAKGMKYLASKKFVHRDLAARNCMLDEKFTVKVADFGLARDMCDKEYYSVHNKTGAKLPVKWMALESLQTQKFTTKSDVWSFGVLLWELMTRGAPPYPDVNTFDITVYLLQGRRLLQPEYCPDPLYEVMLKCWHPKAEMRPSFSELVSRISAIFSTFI
Description: as §1

[6] = molecular target: T6, human MET kinase Y1230H (Homo sapiens, UniProt P08581, Y1230H); assay: c-Met Enzyme Assay, Y1230H mutant; type: binding; conditions: averaged IC50; Y1230H 5 nM; 60-minute incubation at 22° C.; read-out: Y1230 H IC50
T6 construct: GST-tagged recombinant human MET kinase domain; purchased Signal Chem
T6 sequence (P08581 1078-1345 Y1230H): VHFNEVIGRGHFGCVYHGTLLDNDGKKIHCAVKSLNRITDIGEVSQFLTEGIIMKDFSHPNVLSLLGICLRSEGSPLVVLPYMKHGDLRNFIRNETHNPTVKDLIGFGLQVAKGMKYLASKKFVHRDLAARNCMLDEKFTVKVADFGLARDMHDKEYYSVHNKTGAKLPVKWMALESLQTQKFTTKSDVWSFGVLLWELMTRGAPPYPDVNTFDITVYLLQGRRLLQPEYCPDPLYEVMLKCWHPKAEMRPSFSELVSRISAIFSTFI
Description: as §1

| Compound | IC50 [1] [nM] | IC50 [2] [nM] | IC50 [3] [nM] | IC50 [4] [nM] | IC50 [5] [nM] | IC50 [6] [nM] |
| --- | --- | --- | --- | --- | --- | --- |
| COc1ccc(-c2cn(C(C)C)cc(C(=O)Nc3ccc(Oc4ccnc5cc(OC)c(OC)cc45)cn3)c2=O)cc1 [Example 30, N-(5-((6,7-dimethoxyquinolin-4yl)oxy)pyridin-2-yl)-1-isopropyl-5-(4-methoxyphenyl)-4-oxo-1,4-dihydropyridine-3-carboxamide] | 5 | 20 | 39.7 | 39.9 | 83.5 | 103 |
| COc1ccc(-c2cn(C(C)C)cc(C(=O)Nc3ccc(Oc4ccnc5cc(OC)c(OC)cc45)cn3)c2=O)c(F)c1 [Example 31, N-(5-((6,7-dimethoxyquinolin-4yl)oxy)pyridin-2-yl)-5-(2-fluoro-4-methoxyphenyl)-1-isopropyl-4-oxo-1,4-dihydropyridine-3-carboxamide] | 5 | 23 | 41 | 59.1 | 69.3 | 98.2 |
| COc1ccc2nccc(Oc3ccc(NC(=O)c4cn(C(C)C)c(C)c(-c5ccc(F)cc5)c4=O)nc3)c2c1 [Example 33, 5-(4-fluorophenyl)-1-isopropyl-N-(5-((6-methoxyquinolin-4-yl)oxy)pyridin-2-yl)-6-methyl-4-oxo-1,4-dihydropyridine-3-carboxamide] | 5 | 10 | 3.9 | 20.2 | 2.7 | 11.2 |
| COc1cc2nccc(Oc3ccc(NC(=O)c4cn(CCC(C)C)cc(-c5ccc(F)cc5)c4=O)nc3)c2cc1OC [Example 34, N-(5-((6,7-dimethoxyquinolin-4yl)oxy)pyridin-2-yl)-5-(4-fluorophenyl)-1-isopentyl-4-oxo-1,4-dihydropyridine-3-carboxamide] | 9 | 14 | 4 | 11.2 | 4.2 | 5.9 |
| COc1cc2nccc(Oc3ccc(NC(=O)c4cn(CCC(C)C)cc(-c5ccc(F)c(F)c5)c4=O)nc3)c2cc1OC [Example 35, 5-(3,4-difluorophenyl)-N-(5-((6,7-dimethoxyquinolin-4yl)oxy)pyridin-2-yl)-1-isopentyl-4-oxo-1,4-dihydropyridine-3-carboxamide] | 15 | 30 | 13.8 | 34.3 | 10.5 | 18.3 |
| COc1cc2nccc(Oc3ccc(NC(=O)c4cn(CCC(C)C)cc(-c5ccc(F)cc5F)c4=O)nc3)c2cc1OC [Example 36, 5-(2,4-difluorophenyl)-N-(5-((6,7-dimethoxyquinolin-4yl)oxy)pyridin-2-yl)-1-isopentyl-4-oxo-1,4-dihydropyridine-3-carboxamide] | 8 | 14 | 2.4 | 14.4 | 2.8 | 4.4 |
| COc1cc2nccc(Oc3ccc(NC(=O)c4cn(CCC(C)C)cc(-c5ccc(Cl)cc5)c4=O)nc3)c2cc1OC [Example 37] | 16 | 30 | 10 | 23.2 | 9.3 | 16.8 |
| CCn1cc(C(=O)Nc2ccc(Oc3ccnc4ccc(OC)cc34)cn2)c(=O)c(-c2ccc(F)cc2)c1 [Example 39, 1-ethyl-5-(4-fluorophenyl)-N-(5-((6-methoxyquinolin-4-yl)oxy)pyridin-2-yl)-4-oxo-1,4-dihydropyridine-3-carboxamide] | 16 | 83 | 29.4 | 508 | 47 | 209 |
| COc1ccc2nccc(Oc3ccc(NC(=O)c4cn(C)cc(-c5ccc(F)cc5)c4=O)nc3)c2c1 [Example 41, 5-(4-fluorophenyl)-N-(5-((6-methoxyquinolin-4yl)oxy)pyridin-2-yl)-1-methyl-4-oxo-1,4-dihydropyridine-3-carboxamide] | 33 | 141 | 117 | 2220 | 173 | 328 |
| COc1cc2nccc(Oc3ccc(NC(=O)c4cn(CCN(C)C)cc(-c5ccc(Cl)cc5)c4=O)nc3)c2cc1OC [Example 42] | 9 | 16 | 3.2 | 8.2 | 2.4 | 6.7 |

Other lines, results leading:

| IC50 [1] [nM] | IC50 [2] [nM] | IC50 [3] [nM] | IC50 [4] [nM] | IC50 [5] [nM] | IC50 [6] [nM] | Compound |
| --- | --- | --- | --- | --- | --- | --- |
| 5 | 54 | 8.2 | 18.7 | 10.4 | 21.2 | COc1cc2nccc(Oc3ccc(NC(=O)c4cn(CC(=O)N(C)C)cc(-c5ccc(Cl)cc5)c4=O)nc3)c2cc1OC [Example 25] |
| 2 | 3 | 1.8 | 2.9 | 1.5 | 2.3 | COc1cc2nccc(Oc3ccc(NC(=O)c4cn(C(C)C)c(C)c(-c5ccc(F)cc5)c4=O)nc3)c2cc1OC [Example 27, N-(5-((6,7-dimethoxyquinolin-4yl)oxy)pyridin-2-yl)-5-(4-fluorophenyl)-1-isopropyl-6-methyl-4-oxo-1,4-dihydropyridine-3-carboxamide] |
| 3 | 7 | 2 | 4 | 1.7 | 7.8 | COc1cc2nccc(Oc3ccc(NC(=O)c4cn(C(C)C)c(C)c(-c5ccc(F)c(F)c5)c4=O)nc3)c2cc1OC [Example 28, 5-(3,4-difluorophenyl)-N-(5-((6,7-dimethoxyquinolin-4yl)oxy)pyridin-2-yl)-1-isopropyl-6-methyl-4-oxo-1,4-dihydropyridine-3-carboxamide] |
| 3 | 6 | 4.3 | 5.1 | 2.6 | 4.2 | CCc1c(-c2ccc(F)cc2)c(=O)c(C(=O)Nc2ccc(Oc3ccnc4cc(OC)c(OC)cc34)cn2)cn1C(C)C [Example 29, N-(5-((6,7-dimethoxyquinolin-4yl)oxy)pyridin-2-yl)-6-ethyl-5-(4-fluorophenyl)-1-isopropyl-4-oxo-1,4-dihydropyridine-3-carboxamide] |
| 3 | 9 | 3 | 44.8 | 6.7 | 12.1 | COc1cc2nccc(Oc3ccc(NC(=O)c4cn(C(C)C)cc(-c5ccc(F)cc5OC)c4=O)nc3)c2cc1OC [Example 32, N-(5-((6,7-dimethoxyquinolin-4yl)oxy)pyridin-2-yl)-5-(4-fluoro-2-methoxyphenyl)-1-isopropyl-4-oxo-1,4-dihydropyridine-3-carboxamide] |

Reference: patent US20200216416A1, “QUINOLINE COMPOUNDS AS INHIBITORS OF TAM AND MET KINASES” (Array BioPharma Inc., priority 2019, published 2020)
